For one data set, the target named is T1, human factor Xa (Homo sapiens, UniProt P00742).
T1 construct: purchased Enzyme Research Laboratories, Inc; South Bend, Ind
In words: Factor Xa assay (Test 1, a.), chromogenic substrate S-2765. In kind it is biochemical. The protocol:
Purified enzymes are used in chromogenic assays. To determine the inhibition constant Ki, the IC50 value is corrected for competition with substrate using the formula
Ki'IC50×(1/{1+((substrate concentration)/substrate Km)})
wherein Km is the Michaelis-Menten constant (Chen and Prusoff, Biochem. Pharmacol. 22 (1973), […] which is incorporated herein by reference).
TBS-PEG buffer (50 mM Tris-Cl, pH 7.8, 200 mM NaCl, 0.05% (w/v) PEG-8000, 0.02% (w/v) NaN3) is used for this assay.
The assay is performed by pre-incubating the compound of formula I plus enzyme for 10 min. Then the assay is initiated by adding substrate to obtain a final volume of 100 μl. The initial velocity of chromogenic substrate hydrolysis is measured by the change in absorbance at 405 nm using a Bio-tek Instruments kinetic plate reader (Ceres UV900HDi) at 25° C. during the linear portion of the time course (usually 1.5 min after addition of substrate). The concentration of inhibitor that causes a 50% decrease in the rate of substrate hydrolysis is predicted by linear regression after plotting the relative rates of hydrolysis (compared to the uninhibited control) versus the log of the concentration of the compound of formula I. The enzyme concentration is 0.5 nM and substrate concentration is 140 μM.
The inhibition constants were determined as described above (Test 1, a., Factor Xa Assay).

In another data set the target is factor Xa. The settings on record: values of known factor Xa inhibitors stated in the background; cited from earlier work.

Counter-ions that a name gives are not always drawn.

T1 sequence (P00742 235-488 limits assumed): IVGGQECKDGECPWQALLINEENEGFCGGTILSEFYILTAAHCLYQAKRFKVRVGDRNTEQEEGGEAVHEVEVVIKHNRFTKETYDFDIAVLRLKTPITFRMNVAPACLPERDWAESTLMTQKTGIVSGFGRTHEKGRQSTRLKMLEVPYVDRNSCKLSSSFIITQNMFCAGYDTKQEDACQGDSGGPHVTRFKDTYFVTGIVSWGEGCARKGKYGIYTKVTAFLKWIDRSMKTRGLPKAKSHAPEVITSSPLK
T1 sequence (P00742 41-179 partner limits assumed): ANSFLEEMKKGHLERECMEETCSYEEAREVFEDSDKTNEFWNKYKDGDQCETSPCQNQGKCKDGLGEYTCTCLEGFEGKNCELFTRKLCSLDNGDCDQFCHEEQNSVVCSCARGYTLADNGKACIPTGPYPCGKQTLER

In turn, `N=C(N)c1cccc(CNC(=O)c2c(Cl)c3ccccc3n2Cc2cccc(C(=N)N)c2)c1` [Example 115] registered a Ki on human factor Xa of 9 nM. Take `COc1cccc2c1cc(C(=O)NC(c1ccccc1)c1cc[n+](C)cc1)n2Cc1cccc(C(=N)N)c1.O=C(O)C(F)(F)F.O=C([O-])C(F)(F)F` (racemic) [Example 24, (RS)-4-({[1-(3-Amidino-benzyl)-4-methoxy-1H-indole-2-carbonyl]-amino}-phenyl-methyl)-1-methyl-pyridinium trifluoroacetate trifluoroacetic acid salt, trifluoroacetate trifluoroacetic acid …]: the Ki at human factor Xa is 110 nM.

`C[C@@H](NC(=O)c1cc2cc(OCc3ccccc3)ccc2n1Cc1cccc(C(N)=S)c1)c1ccccc1` [21(4), (R)-5-Benzyloxy-1-(3-thiocarbamoyl-benzyl)-1H-indole-2-carboxylic acid (1-phenyl-ethyl)amide] yielded a Ki at human factor Xa of 4800 nM. For `N=C(N)c1cccc(Cn2c(C(=O)NCc3cc(Cl)cc(Cl)c3)cc3c(O)cccc32)c1` [Example 120], at human factor Xa, affinity was put at a Ki of 4.8 nM. Consider `CC(=O)O.CC(=O)[O-].C[N+](C)(C)c1ccc(CNC(=O)c2cc3c(O)cccc3n2Cc2cccc(C(=N)N)c2)cc1` [Example 39, [4-({[1-(3-Amidino-benzyl)-4-hydroxy-1H-indole-2-carbonyl]-amino}-methyl)-phenyl]-trimethyl-ammonium acetate acetic acid salt], for which the melting point is 113 °C (dec.). Further, on human factor Xa, the Ki stood at 7 nM. As for `CC(=O)O.CC(=O)[O-].CC(C)(C)OC(=O)Nc1ccc2c(c1)cc(C(=O)NCc1ccc([N+](C)(C)C)cc1)n2Cc1cccc(C(=N)N)c1` [Example 58, [4-({[1-(3-Amidino-benzyl)-5-tert-butoxycarbonylamino-1H-indole-2-carbonyl]-amino}-methyl)-phenyl]-trimethyl-ammonium acetate acetic acid salt], the melting point was 146 °C (dec.). This molecule came in with an inhibition constant Ki at human factor Xa of 14 nM. `Cc1cccc2c1cc(C(=O)NCc1cccc(C(=N)N)c1)n2Cc1cccc(C(=N)N)c1.O=C(O)C(F)(F)F.O=C(O)C(F)(F)F` [Example 47, 1-(3-Amidino-benzyl)-4-methyl-1H-indole-2-carboxylic acid 3-amidino-benzyl amide trifluoroacetic acid salt] yielded a melting point of 242 to 243 °C. Moreover, on human factor Xa, the affinity, expressed as Ki, was 7 nM.

Consider `CC(NC(=O)c1cc2ccccc2n1Cc1cccc(C(=N)N)c1)c1cc[n+](C)cc1` (racemic) [Example 2, (RS)-4-(1-{[1-(3-Amidino-benzyl)-1H-indole-2-carbonyl]-amino}-ethyl)-1-methylpyridinium trifluoroacetate trifluoroacetic acid salt, trifluoroacetate trifluoroacetic acid …], for which, on human factor Xa, the Ki worked out at 100 nM. `N=C(N)c1cccc(Cn2c(C(=O)NC(c3ccccc3)c3ccncc3)cc3ccccc32)c1.O=C(O)C(F)(F)F.O=C(O)C(F)(F)F` (racemic) [Example 23, (RS)-1-(3-Amidino-benzyl)-1H-indole-2-carboxylic acid α-(4-pyridyl)-benzyl amide trifluoroacetic acid salt] yielded a melting point of 88 to 92 °C. This molecule also showed a Ki at human factor Xa of 7000 nM. `Cc1cccc2c1cc(C(=O)NCc1ccc([N+](C)(C)C)cc1)n2Cc1cccc(C(=N)N)c1.O=C(O)C(F)(F)F.O=C([O-])C(F)(F)F` [Example 35, [4-({[1-(3-Amidino-benzyl)-4-methyl-1H-indole-2-carbonyl]-amino}-methyl)-phenyl]-trimethyl-ammonium trifluoroacetate trifluoroacetic acid salt, trifluoroacetate trifluoroacetic acid …] displayed an inhibition constant Ki on human factor Xa of 9 nM. At human factor Xa, `COC(=O)c1cccc(CNC(=O)c2cc3c(O)cccc3n2Cc2cccc(C(=N)N)c2)c1` [Example 132] registered a Ki of 2000 nM. In turn, `N=C(N)c1ccc(CNC(=O)c2cc3c(O)cccc3n2Cc2cccc(C(=N)N)c2)cc1.O=C(O)C(F)(F)F.O=C(O)C(F)(F)F` [Example 78, 1-(3-Amidino-benzyl)-4-hydroxy-1H-indole-2-carboxylic acid 4-amidino-benzylamide trifluoroacetic acid salt] returned a melting point of 155 to 157 °C. This molecule also came in with an inhibitory constant (Ki) on human factor Xa of 210 nM. Regarding `Cc1cc(CNC(=O)c2cc3c(O)cccc3n2Cc2cccc(C(=N)N)c2)cc(C(F)(F)F)c1` [Example 112], the Ki at human factor Xa was determined as 13 nM. `CN1CCC(C(NC(=O)c2cc3ccccc3n2Cc2cccc(C(=N)N)c2)c2ccc3cc(Cl)ccc3c2)CC1.O=C(O)C(F)(F)F.O=C(O)C(F)(F)F` (racemic) [Example 27, (RS)-1-(3-Amidino-benzyl)-1H-indole-2-carboxylic acid ((6-chloro-2-naphthyl)-(1-methyl-piperidin-4-yl)-methyl)amide trifluoroacetic acid salt]: the melting point is 110 to 120 °C. Further, the Ki at human factor Xa stood at 610 nM. In turn, `C[N+](C)(C)Cc1ccc(CNC(=O)c2cc3ccccc3n2Cc2cccc(C(=N)N)c2)cc1` [Example 6, [4-({[1-(3-Amidino-benzyl)-1H-indole-2-carbonyl]-amino}-methyl)-benzyl]-trimethyl-ammonium trifluoroacetate trifluoroacetic acid salt, trifluoroacetate trifluoroacetic acid …] registered a Ki at human factor Xa of 400 nM.

Molecule `C[N+](C)(C)c1ccc(CNC(=O)c2cc3ccccc3n2Cc2cccc(C(=N)N)c2)cc1` [Example 4, [4-({[1-(3-Amidino-benzyl)-1H-indole-2-carbonyl]-amino}-methyl)-phenyl]-trimethyl-ammonium trifluoroacetate trifluoroacetic acid salt, trifluoroacetate trifluoroacetic acid …] displayed a Ki on human factor Xa of 90 nM.

On to “tick anticoagulant peptide (YNRLCIKPRDWIDECDSNEGGERAYFRNGKGGCDSFWICPEDHTGADYYSSYRDCFNACI; UniProt P17726 1-60, looked up) [TAP]”, for which the Ki at factor Xa was roughly 0.5 nM. As to `N=C(N)NCCC[C@H](NC(=O)c1cc2ccccc2n1Cc1ccc(C(=N)N)cc1)C(N)=O` [Example 81, 1-(4-Amidinobenzyl)-1H-indole-2-carbonyl-L-arginyl amide trifluoroacetic acid salt], the Ki on human factor Xa stood at 63000 nM. `C[N+](C)(C)c1ccc(CNC(=O)c2cc3cc([N+](=O)[O-])ccc3n2Cc2cccc(C(=N)N)c2)cc1.O=C(O)C(F)(F)F.O=C([O-])C(F)(F)F`: the melting point is 120 °C (dec.). For the molecule `CC(=O)O.CC(=O)[O-].COc1ccc2c(c1)cc(C(=O)NCc1ccc([N+](C)(C)C)cc1)n2Cc1cccc(C(=N)N)c1`, the melting point was 94 °C (dec.). On the same count and under the same terms, the figure for `N/C(=N\O)c1cccc(COC(=O)c2cc3ccccc3n2Cc2cccc(/C(N)=N/O)c2)c1` [Example 53, 1-(3-Hydroxyamidino-benzyl)-1H-indole-2-carboxylic acid (3-hydroxyamidino-benzyl)ester] is 114 to 116 °C. For `N=C(N)c1ccc(C=C2CCCCC(=Cc3ccc(C(=N)N)cc3)C2=O)cc1` [2,7-bis-(4-amidinobenzylidene)-cycloheptanone, reference compound], the inhibition constant Ki on factor Xa is roughly 20 nM. In turn, `COc1cccc2c1cc(C(=O)NC(c1ccccc1)c1ccncc1)n2Cc1cccc(C(=N)N)c1.O=C(O)C(F)(F)F.O=C(O)C(F)(F)F` (racemic) came in with a melting point of 105 °C.

In turn, `C[N+](C)(C)c1ccc(CNC(=O)c2c(Cl)c3ccccc3n2Cc2cccc(C(=N)N)c2)cc1` [Example 106] had a Ki on human factor Xa of 40 nM.

As for `N=C(N)c1ccc(C(=O)N2CCc3c(n(Cc4cccc(C(=N)N)c4)c4ccccc34)C2)cc1` [Example 84, 2-(4-Amidino-benzoyl)-9-(3-amidino-benzyl)-1,2,3,4-tetrahydro-9H-pyrido[3,4-b]indole trifluoroacetic acid salt], affinity at human factor Xa was put at a Ki of 900 nM. With `Cc1cc(CNC(=O)c2cc3c(O)cccc3n2Cc2cccc(C(=N)N)c2)cc(C(F)(F)F)c1` (as salt: trifluoroacetic acid salt) [Example 112], the melting point stood at 126 °C. Still for that read-out and setting: under `CN(C)c1ccc(CNC(=O)c2cc3cc(Cl)ccc3n2Cc2cccc(/C(N)=N/O)c2)cc1` [Example 52, 1-(3-Hydroxyamidino-benzyl)-5-chloro-1H-indole-2-carboxylic acid (4-dimethylamino)-benzyl amide] stands 200 °C (dec.); under `C[N+](C)(C)c1ccc(CNC(=O)c2cn(Cc3cccc(C(=N)N)c3)c3ccccc23)cc1.O=C(O)C(F)(F)F.O=C([O-])C(F)(F)F`, 177 °C (dec.).

B1: antistasin (protein, UniProt P15358 18-136, looked up)
Antistasin: QGPFGPGCEEAGCPEGSACNIITDRCTCSGVRCRMHCPHGFQRSRYGCEFCKCRLEPMKATCDISECPEGMMCSRLTNKCDCKIDINCRKTCPNGLKRDKLGCEYCECRPKRKLIPRLS
As for B1, at factor Xa, the Ki was 0.05 nM.

(Values after US6337344B1, “Indole derivatives as inhibitors or factor Xa” (Aventis Pharma Deutschland GmbH, priority 1997, dated 2002).)
